13 compounds from ChEMBL document CHEMBL3120092, “Discovery of GS-9669, a thumb site II non-nucleoside inhibitor of NS5B for the treatment of genotype 1 chronic hepatitis C infection” (J Med Chem, 2014) can be followed below.

Structures are written as SMILES.

For one series, the system named is Hepatitis C virus. Put plainly: Antiviral activity against Hepatitis C virus H77 genotype 1a infected in human HuH7 cells assessed as observed antiviral potency after 72 hrs by luciferase reporter gene assay. In kind it is functional, organism-based, Hepacivirus hominis. The following applies: genotype 1a H77, Huh-7, 72 h.
The EC50 is the concentration giving half of the maximal effect. Take `C[C@@H](CCOc1cccnc1)N(c1cc(C#CC(C)(C)C)sc1C(=O)O)C(=O)[C@H]1CC[C@H](C)CC1`: the EC50 came out at 102 nM.

`CC(C)(C)C#Cc1cc(N(C(=O)[C@H]2CC[C@H](C)CC2)[C@H]2CC[C@@H](Oc3cccnc3)CC2)c(C(=O)O)s1`: the EC50 is 45 nM.

Consider `CC(C)N(C(=O)C1CCCCC1)c1cc(C#CC(C)(C)C)sc1C(=O)O`, for which the EC50 was 2800 nM.

Consider `CC(C)N(c1cc(C#CC(C)(C)C)sc1C(=O)O)C(=O)[C@H]1CC[C@H](Cl)CC1`, for which the EC50 is 315 nM.

For `CC(C)N(c1cc(C#CC(C)(C)C)sc1C(=O)O)C(=O)[C@H]1CC[C@H](CF)CC1`, the EC50 is 169 nM.

In the case of `CC(C)N(C(=O)C1CCC(F)(F)CC1)c1cc(C#CC(C)(C)C)sc1C(=O)O`, the EC50 was 32100 nM.

For the compound `CC(C)N(C(=O)C1CCCCCC1)c1cc(C#CC(C)(C)C)sc1C(=O)O`, the EC50 turned out to be 2020 nM.

As for `CC(C)N(C(=O)[C@H]1[C@@H]2CCCC[C@@H]21)c1cc(C#CC(C)(C)C)sc1C(=O)O`, the 50% effective concentration (EC50) stood at 4680 nM.

For `CC(C)N(C(=O)[C@H]1CC[C@@H]2C[C@@H]2CC1)c1cc(C#CC(C)(C)C)sc1C(=O)O`, the EC50 turned out to be 6190 nM.

With `CC(C)N(C(=O)[C@@H]1CC[C@@H]2C[C@@H]2CC1)c1cc(C#CC(C)(C)C)sc1C(=O)O`, the concentration giving a half-maximal response (EC50) was 1620 nM.

Consider `CC1CC=C(C(=O)N(c2cc(C#CC(C)(C)C)sc2C(=O)O)C(C)C)CC1` (centres undefined), for which the EC50 is 773 nM.

In the case of `CC1=CC[C@@H](C(=O)N(c2cc(C#CC(C)(C)C)sc2C(=O)O)C(C)C)CC1`, the EC50 amounted to 45 nM.

Tested on in the next series: not listed separately
The series can be described thus: Cytotoxicity against human MT4 cells after 5 days by Cell Titre Glo assay. In kind it is cell-based.
Settings: not given
The CC50 is the concentration that lowers cell viability or growth by half. Regarding `C[C@@H](CCOc1cccnc1)N(c1cc(C#CC(C)(C)C)sc1C(=O)O)C(=O)[C@H]1CC[C@H](C)CC1`, the CC50 at 120 h is > 20000 nM.

As to `CC(C)(C)C#Cc1cc(N(C(=O)[C@H]2CC[C@H](C)CC2)[C@H]2CC[C@@H](Oc3cccnc3)CC2)c(C(=O)O)s1`, the CC50 at 120 h is > 20000 nM.

Turning to `CC(C)N(C(=O)C1CCCCC1)c1cc(C#CC(C)(C)C)sc1C(=O)O`, the CC50 at 120 h is > 20000 nM.

Take `CC(C)N(c1cc(C#CC(C)(C)C)sc1C(=O)O)C(=O)[C@H]1CC[C@H](Cl)CC1`: the CC50 at 120 h was > 20000 nM.

`CC(C)N(c1cc(C#CC(C)(C)C)sc1C(=O)O)C(=O)[C@H]1CC[C@H](CF)CC1`: the CC50 at 120 h is > 20000 nM.

As for `CC(C)N(C(=O)C1CCC(F)(F)CC1)c1cc(C#CC(C)(C)C)sc1C(=O)O`, the CC50 at 120 h is > 20000 nM.

In the case of `CC(C)N(C(=O)C1CCCCCC1)c1cc(C#CC(C)(C)C)sc1C(=O)O`, the CC50 at 120 h is > 20000 nM.

`CC(C)N(C(=O)[C@H]1[C@@H]2CCCC[C@@H]21)c1cc(C#CC(C)(C)C)sc1C(=O)O`: the CC50 at 120 h is > 20000 nM.

For `CC(C)N(C(=O)[C@H]1CC[C@@H]2C[C@@H]2CC1)c1cc(C#CC(C)(C)C)sc1C(=O)O`, the CC50 at 120 h is > 20000 nM.

For `CC(C)N(C(=O)[C@@H]1CC[C@@H]2C[C@@H]2CC1)c1cc(C#CC(C)(C)C)sc1C(=O)O`, the CC50 at 120 h is > 20000 nM.

With `CC1CC=C(C(=O)N(c2cc(C#CC(C)(C)C)sc2C(=O)O)C(C)C)CC1` (centres undefined), the CC50 at 120 h was > 20000 nM.

With `CC1=CC[C@@H](C(=O)N(c2cc(C#CC(C)(C)C)sc2C(=O)O)C(C)C)CC1`, the CC50 at 120 h was > 20000 nM.

Consider `CCC[C@]1(CC(=O)O)OCCc2c1[nH]c1c(C)ccc(C#N)c21`, for which the CC50 at 120 h was > 20000 nM.

For another series, the system named is Hepatitis C virus. Put plainly: Antiviral activity against Hepatitis C virus H77 genotype 1a infected in human HuH7 cells assessed as intrinsic antiviral potency after 72 hrs by luciferase reporter gene assay. Particulars: genotype 1a H77, Huh-7, 72 h. In kind it is functional, organism-based, Hepacivirus hominis. Background: In a reporter assay the amount or activity of a reporter protein is the signal.
`C[C@@H](CCOc1cccnc1)N(c1cc(C#CC(C)(C)C)sc1C(=O)O)C(=O)[C@H]1CC[C@H](C)CC1`: the EC50 was 2.4 nM.

Take `CC(C)(C)C#Cc1cc(N(C(=O)[C@H]2CC[C@H](C)CC2)[C@H]2CC[C@@H](Oc3cccnc3)CC2)c(C(=O)O)s1`: the EC50 was 1.2 nM.

As for `CC(C)N(C(=O)C1CCCCC1)c1cc(C#CC(C)(C)C)sc1C(=O)O`, the EC50 turned out to be 500 nM.

As to `CC(C)N(c1cc(C#CC(C)(C)C)sc1C(=O)O)C(=O)[C@H]1CC[C@H](Cl)CC1`, the half-maximal effective concentration (EC50) is 44 nM.

On to `CC(C)N(c1cc(C#CC(C)(C)C)sc1C(=O)O)C(=O)[C@H]1CC[C@H](CF)CC1`, for which the EC50 was found to be 31 nM.

Take `CC(C)N(C(=O)C1CCC(F)(F)CC1)c1cc(C#CC(C)(C)C)sc1C(=O)O`: the EC50 amounted to 12800 nM.

For the compound `CC(C)N(C(=O)C1CCCCCC1)c1cc(C#CC(C)(C)C)sc1C(=O)O`, the concentration giving a half-maximal response (EC50) was determined as 225 nM.

Regarding `CC(C)N(C(=O)[C@H]1[C@@H]2CCCC[C@@H]21)c1cc(C#CC(C)(C)C)sc1C(=O)O`, the half-maximal effective concentration (EC50) was found to be 206 nM.

For the compound `CC(C)N(C(=O)[C@H]1CC[C@@H]2C[C@@H]2CC1)c1cc(C#CC(C)(C)C)sc1C(=O)O`, the EC50 is 483 nM.

With `CC(C)N(C(=O)[C@@H]1CC[C@@H]2C[C@@H]2CC1)c1cc(C#CC(C)(C)C)sc1C(=O)O`, the 50% effective concentration (EC50) was 88 nM.

As for `CC1CC=C(C(=O)N(c2cc(C#CC(C)(C)C)sc2C(=O)O)C(C)C)CC1` (centres undefined), the EC50 came out at 65 nM.

Consider `CC1=CC[C@@H](C(=O)N(c2cc(C#CC(C)(C)C)sc2C(=O)O)C(C)C)CC1`, for which the concentration for a half-maximal effect (EC50) is 3.7 nM.

Tested on in another series: not listed separately
The series can be described thus: Mean residence time in Sprague-Dawley rat at 0.5 mg/kg, iv. The class given is ADME, organism-based. Further details: dose 0.5 mg/kg, route intravenous. Particulars: in vivo.
The MRT is the average time that molecules of a dose stay in the body. Take `CC(C)(C)C#Cc1cc(N(C(=O)[C@H]2CC[C@H](C)CC2)[C@H]2CC[C@@H](Oc3cccnc3)CC2)c(C(=O)O)s1`: the MRT amounted to 12 min.

Tested on in a further series: not listed separately
Put plainly: Fraction unbound in cell culture medium at 2 uM at pH 7.4 by equilibrium dialysis method. In kind it is ADME.
Settings: not given
(In general: In equilibrium dialysis free small molecules cross a membrane that holds back macromolecules.)
In general, fraction unbound refers to free concentration divided by total concentration. Consider `C[C@@H](CCOc1cccnc1)N(c1cc(C#CC(C)(C)C)sc1C(=O)O)C(=O)[C@H]1CC[C@H](C)CC1`, for which the fraction unbound at 2 µM is 0.02.

In turn, `CC(C)N(C(=O)C1CCCCC1)c1cc(C#CC(C)(C)C)sc1C(=O)O` returned a fraction unbound at 2 µM of 0.18.

Compound `CC(C)N(c1cc(C#CC(C)(C)C)sc1C(=O)O)C(=O)[C@H]1CC[C@H](Cl)CC1` registered a fraction unbound at 2 µM of 0.14.

In turn, `CC(C)N(c1cc(C#CC(C)(C)C)sc1C(=O)O)C(=O)[C@H]1CC[C@H](CF)CC1` gave a fraction unbound at 2 µM of 0.18.

Regarding `CC(C)N(C(=O)C1CCC(F)(F)CC1)c1cc(C#CC(C)(C)C)sc1C(=O)O`, the fraction unbound at 2 µM is 0.4.

`CC(C)N(C(=O)C1CCCCCC1)c1cc(C#CC(C)(C)C)sc1C(=O)O` returned an unbound share (fraction unbound) at 2 µM of 0.11.

`CC(C)N(C(=O)[C@H]1[C@@H]2CCCC[C@@H]21)c1cc(C#CC(C)(C)C)sc1C(=O)O` yielded a fraction unbound at 2 µM of 0.04.

For the compound `CC(C)N(C(=O)[C@H]1CC[C@@H]2C[C@@H]2CC1)c1cc(C#CC(C)(C)C)sc1C(=O)O`, the free fraction (fraction unbound) at 2 µM amounted to 0.08.

For `CC(C)N(C(=O)[C@@H]1CC[C@@H]2C[C@@H]2CC1)c1cc(C#CC(C)(C)C)sc1C(=O)O`, the fraction unbound at 2 µM is 0.05.

Take `CC1CC=C(C(=O)N(c2cc(C#CC(C)(C)C)sc2C(=O)O)C(C)C)CC1` (centres undefined): the fraction unbound at 2 µM came out at 0.08.

Compound `CC1=CC[C@@H](C(=O)N(c2cc(C#CC(C)(C)C)sc2C(=O)O)C(C)C)CC1` came in with a fraction unbound at 2 µM of 0.08.
